# Measured values reported in PMC9321043, “Synthesis, Structure–Activity Relationships, and Parasitological Profiling of Brussonol Derivatives as New Plasmodium falciparum Inhibitors” (Pharmaceuticals, 2022).
# Like-named read-outs stand apart in the source and are kept apart here.
# Columns and labels:
# [1] = system: P. falciparum (3D7 strain); test: In vitro antiplasmodial activity, P. falciparum blood-stage parasites, SYBR Green I; assay type: cell-based, Plasmodium falciparum; conditions: 3D7 strain, 72 h, SYBR Green I, read-out: IC50^Pf
# Experimental: The P. falciparum strains were cultivated in human blood cells (hRBC) O^+, while P. knowlesi was cultivated in rhesus red blood cells (rRBC) as described. P. falciparum complete RPMI (consisting of RPMI-1640, supplemented with 0.2% NaHCO3, 25 mM HEPES (pH 7.4), 11 mM D-glucose, 10 mg/L hypoxanthine, 25 mg/L gentamicin, and 0.5% (m/v) AlbuMAX II). The parasitemias of these cultures were maintained below 10% with 2.5% hematocrit. P. knowlesi complete RPMI (consisting of RPMI-1640 supplemented with 25 mM HEPES, […] hypoxanthine, 0.26% NaHCO3, 10 mg/L gentamicin, and 1% Albumax II). This culture was maintained with RBCs up to 5% hematocrit. The culture medium was changed daily, and all cultures were maintained under a 90% N2/5% CO2/5% O2 gas mixture at 37 °C. All compounds were purchased from Sigma-Aldrich (Cotia, Brazil).
# The antiplasmodial activity of brussonol and derivatives was evaluated against P. falciparum blood parasites 3D7(chloroquine-sensitive). The parasites were synchronized through sterile 5% (m/v) D-sorbitol treatment over 10 min at 37 °C for the enrichment of ring stages. Centrifugation 600× g over 5 min was used to pellet the cultures. The parasitemia was determined by microscope analysis of thin blood smears stained with Giemsa 10% (v/v) after fixation with methanol. The initial parasitemia was calculated for 1000 red blood cells (RBCs), and cultures were diluted to 0.5% parasitemia and 2% hematocrit by the addition of the appropriate volumes of blood and medium. A total of 180 µL aliquots of parasites were distributed into 96-well plates followed by the addition of 20 µL of previously prepared aliquots of ten-fold concentrated compounds, the range of concentrations tested was 10–1.53 µM. Negative and positive control wells, which correspond to non-parasitized erythrocytes and parasite cultures in the absence of compounds, were set in parallel. The DMSO concentration was maintained below 0.05% (v/v) for all compounds except for brussonol, which was 0.5%. The plates were incubated for 72 h at 37 °C in a humidified incubator with a gas mixture of 90% N2, 5% O2, and 5% CO2. Each test was performed in duplicates, and the results were compared with the control cultures. Once completed incubation, the culture medium was removed, and the cells were resuspended in 100 µL PBS (116 mM NaCl, 10 mM NaH2PO4, 3 mM KH2PO4) and lysed with 100 µL lysis buffer (20 mM Tris base, 5 mM EDTA, 0.0008% (v/v) Triton X-100, 0.008% (m/v) saponin, pH 8.0) containing 0.002% (v/v) SYBR Green I. Plates were incubated for 30 min at room temperature, and a SpectraMAX Gemini EM plate reader (Molecular Devices Corp., Sunnyvale, CA) was used to determine the fluorescence corresponding to parasitic density (excitation at 485 nm, emission at 535 nm). The half-maximal inhibitory concentration (IC50^Pf) was determined by non-linear regression analysis of the resulting concentration–response curve using the software GraphPad Prism version 8.0.1 for Windows, GraphPad Software, San Diego, California USA, www.graphpad.com, accessed on 3 March 2022”.
# [2] = system: HepG2 cells; test: Cytotoxic test on immortalized cells, MTT; assay type: cell-based, human; conditions: HepG2, 72 h
# Experimental: The cytotoxic effects of brussonol and derivatives were evaluated against the human hepatocellular carcinoma cell line (HepG2). The cells were cultivated in an RPMI medium supplemented with 10% (v/v) fetal bovine serum and 25 µg/mL gentamicin. Conditions for the cultivation of these cells were 37 °C and 5% CO2, and every 2 days the supplemented medium was changed.
# For experimental procedures, the cells were trypsinized and transferred to a 96-well plate at 30,000 cells per well (180 µL). The plate was incubated at 37 °C and 5% CO2 to allow cell adhesion. Next, 20 µL of serial dilutions of the compounds tested were added to the plate, with a range of concentrations tested from 400–6.25 µM. Cells without any compounds were used as a positive control for growing and the wells containing only medium were used as negative controls. The plate was incubated for 72 h at 37 °C and 5% CO2. After incubation, a microscope was used to determine the highest compound concentration to be used in the experiments (highest concentration without precipitation). A colorimetric assay was used to evaluate cytotoxicity. This assay is based on the metabolic cell activity in the presence of 3-(4,5-dimethylthiazol-2-yl)-2,5-diphenyltetrazolium bromide (MTT). Shortly after incubation, 20 µL of a solution of MTT at 5 mg/mL (solubilized in phosphate buffer) is added to each well. The plate is incubated for 3 to 4 h at 37 °C to allow MTT cleavage in living cells. Then, the supernatant is removed, and 100 µL of dimethylsulfoxide (DMSO) is added to solubilize the purple formazan crystals. The absorbance, which is proportional to the number of viable cells, was determined using a SpectraMAX Plus 384 plate reader (Molecular Devices Corp., Sunnyvale, CA) (λ = 570 nm). All compounds described here were purchased from Sigma-Aldrich (verificar local).
# After the IC50 against the parasite and the human cell line is determined, it is possible to calculate the SI. It is calculated as the formula below:SI = IC50^HepG2/IC50^Pf.
# For our reference, compounds with SI values higher than 10 are considered well tolerated by the cellular model used, and they are considered for further evaluation.
# [3] = system: hemozoin formation; test: Hemozoin formation inhibition assay; assay type: biochemical; conditions: hemin 25 µM, pH 4.8, 4 h, one experiment in triplicate
# Experimental: 2. Hemozoin Formation Inhibition Assay
# The hemozoin formation inhibition assay was performed as described previously.12 Briefly, serial 1:3 dilutions, in a 96‐well plate, wit h brussonol were made in a final volume of 20 μL in a concentration 10 times higher than the final concentration of the assay. Secondly, 90 μ L of freshly prepared hemin (at a final concentration of 25 μM) solution in 1M NaOAc/HOAc buffer pH 4.8 were added followed by addition of 90 μ L of 5.4 mg/L Tween 20 solution freshly prepared. The plates were let to stand for 4 hours at 37 °C followed by resuspension with multichannel pippete and read at 415 and 630 nm using a SpectraMAX Plus 384 plate reader (Molecular Devices Corp., Sunnyvale, CA).
# Due to the absence of enough compound, this experiment wa s performed only once, but with internal triplicate. Chloroquine (CQ) and pyrimethamine (PYR) were used as positive and negative control of inhibition, respectively.
# Inhibition (%) = 100 – 100 x [(Aco ntro l – Asample) / (Acontrol - Amin)] Acontrol is the difference of the absorbance at 415 and 630 nm of the negative control (Hemin +, Tween 20 ‐, Compound ‐); Amin is the difference of the absorbance at 415 and 630 nm of the positive control (Hemin +, Tween 20 +, Compound ‐ ); Asample is the difference of the absorbance at 415 and 630 nm of the sample. The hemozoin formation inhibition assay was performed to evaluate if brussonol act inhibiting hemozoin formation in P. falciparum. CQ, which is a well‐known inhibitor of hemozoin […]
# Figure S1. Hemozoin formation inhibition assay. Different concentrations of CQ (black triangles), PYR (red squares) and brussonol (blue circles) were incubated with heme in triplicates. Th e absorbance was recorded at 415/630 nm to determine the hemozoin formation inhibition. […]
# [4] = system: P. falciparum 3D7 strain; test: Chemical rescue assay with isopentenyl pyrophosphate (IPP); assay type: cell-based, Plasmodium falciparum; conditions: Plasmodium falciparum, 3D7 strain, 72 h
# Excerpt: To evaluate whether brussonol interfered with the biosynthesis of […] in malaria parasites, we conducted a chemical rescue assay. The assay identifies compounds that interfere with the metabolism of isoprenoids by “rescuing” their growth inhibition through the supplementation of isopentenyl pyrophosphate (IPP), a key precursor of isoprenoid biosynthesis. […] Thus, the chemical rescue assay compares the IC50 values of the tested compound in the presence and absence of IPP. We used fosmidomycin (FOS) as a positive control for growth inhibition rescuing upon supplementation of IPP (Figure 7b). In this assay, compounds that interfere in the metabolism of isoprenoids show a significant increment in the IC50 value in the presence of IPP (Figure 7b).
# The chemical rescue assay was carried out as described by Yeh and DeRisi (2011). This assay consists in verifying the IC50 value of the tested compounds with and without the isopentenyl pyrophosphate (IPP), purchased from Isoprenoids, LC (Florida, USA). Briefly, 3D7 strain ring stages were cultured in 96-well plates, with 0.5% parasitemia and 2% hematocrit. Non-parasitized erythrocytes and parasitized erythrocytes without drugs were used as growth controls, and fosmidomycin (FOS) was used as a positive control for chemical rescue. Serial dilutions of brussonol and FOS were prepared in duplicates. In the same 96-well plate, brussonol and FOS had their antiplasmodial activity evaluated with and without supplementation of 200 µM IPP. Plates were incubated for 72 h and analyzed by the SYBR Green I assay.
# [5] = system: cytosolic Ca^2+ in P. falciparum; test: [Ca2+]cyt measurements in isolated parasites loaded with Fluo-4AM; assay type: cell-based, Plasmodium falciparum
# Experimental: One of the compounds identified in the structural similarity search was the cyclopiazonic acid (CPA) (Figure 8a). […] Because of that, brussonol activity on the modulation of the SERCA pump was investigated. To assess the effect of brussonol on calcium mobilization in P. falciparum intraerythrocytic stages, isolated parasites loaded with Fluo-4-AM were exposed to 10 μM brussonol in MOPS Ca^2+ buffer. […] To verify if the brussonol-elicited [Ca^2+]cyt increment originated from the endoplasmic reticulum (ER), targeting the PfSERCA pump, CPA was added before the addition of brussonol. […] In the brussonol-pretreated parasites, the addition of CPA still increased the cytosolic Ca^2 + level (30 ± 5 nM) (Figure 8d).
# Isolated parasites were incubated for 1 h at 37 °C with 5 μM of Fluo-4AM in 1 mL MOPS buffer (116 mM NaCl, 5.4 mM KCl, 0.8 mM MgSO4, 5.5 mM D-glucose, 50 mM MOPS, and 2 mM CaCl2, pH 7.2), with 1 mM probenecid to minimize compartmentalization and extrusion of probe. The parasites were washed three times with the same buffer and transferred to a quartz cuvette. Intracellular calcium was measured continuously using a Hitachi F-7000 spectrofluorimeter (Tokyo, Japan) by measurement of the fluorescence (λex = 488 nm and λem = 530 nm) at 37 °C, under agitation. When indicated, 10 µM of cyclopiazonic acid (CPA) or 10 µM of brussonol were added to the cuvette. Maximal fluorescence (Fmax) was determined after the lysis of with digitonin 0.15% (m/v), and minimal fluorescence (Fmin) was determined by adding 25 mM EGTA in 3 M Tris, pH 8.8, until no further decrease in fluorescence was observed. The cytosolic calcium concentration ([Ca^2+]cyt) was calculated from the fluorescence data (F) using a Kd value of 345 nM using the formula:Ca^2 +cyt = 345 × [(F − Fmin)/(Fmax − F)]
# The results (n = 2) were analyzed through One-Way ANOVA with Tukey post-test. All compounds described here were purchased from Sigma-Aldrich (verificar local).
# [6] = Plasmodium falciparum, 3D7, 72 h
Compound,"IC50 [1, 6]",also measured
Oc1ccc(O)c2c1C[C@@]13CCCC[C@@H]1C[C@@H]2O3 (racemic) [Compound 5],> 10 µM,
COc1c2c(c(OC)c(C(C)C)c1OC)[C@@H]1C[C@H]3C(C)(C)CCC[C@@]3(C2)O1 (racemic) [Compound 8],~5 µM,IC50 [2]: 170 ± 38 µM; IC50 ([2]; Homo sapiens): > 170 µM
COc1ccc2c(c1OC)C[C@@]13CCCC(C)(C)[C@@H]1C[C@@H]2O3 (racemic) [Compound 9],> 10 µM,
COc1c2c(c(Br)c(C(C)C)c1OC)[C@@H]1C[C@H]3C(C)(C)CCC[C@@]3(C2)O1 (racemic) [Compound 10],~5 µM,IC50 [1]: 5.6 ± 0.1 µM
COc1c2c(c(-c3ccccc3)c(C(C)C)c1OC)[C@@H]1C[C@H]3C(C)(C)CCC[C@@]3(C2)O1 (racemic) [Compound 11],5.8 ± 0.2 µM,IC50 ([2]; Homo sapiens): > 12 µM
COc1c(C(C)C)cc2c(c1OC)C[C@@]13CCCC[C@@H]1C[C@@H]2O3 (racemic) [Compound 12],~5 µM,IC50 [1]: 5.6 ± 0.8 µM
CC(C)c1cc2c(c(O)c1O)C[C@@]13CCCC[C@@H]1C[C@@H]2O3 (racemic) [Compound 13],> 10 µM,
COc1c2c(c(-c3ccccc3)c(C(C)C)c1OC)[C@@H]1C[C@H]3CCCC[C@@]3(C2)O1 (racemic) [Compound 15],5.89 ± 0.02 µM,IC50 ([2]; Homo sapiens): > 50 µM
"CCN(CC)CCCC(C)Nc1ccnc2cc(Cl)ccc12 (stereo not drawn) [Chloroquine, reference compound]",,IC50 [3]: 80 µM
COc1ccc2c(c1OC)CC13CCCCC1CC2O3 (stereo not drawn) [Compound 2],> 10 µM,
COc1ccc(OC)c2c1CC13CCCCC1CC2O3 (stereo not drawn) [Compound 3],> 10 µM,
Oc1ccc2c(c1O)CC13CCCCC1CC2O3 (stereo not drawn) [Compound 4],> 10 µM,
O=C1C=CC(=O)C2=C1CC13CCCCC1CC2O3 (stereo not drawn) [Compound 6],> 10 µM,
COc1c(C(C)C)cc2c(c1OC)CC13CCCC(C)(C)C1CC2O3 (stereo not drawn) [Compound 7],5.2 ± 0.4 µM,IC50 ([2]; Homo sapiens): > 192 µM
COc1c2c(c(Br)c(C(C)C)c1OC)C1CC3CCCCC3(C2)O1 (stereo not drawn) [Compound 14],5.65 ± 0.05 µM,IC50 ([2]; Homo sapiens): > 25 µM
"O=CN(O)CCCP(=O)(O)O [fosmidomycin, reference compound]",,"IC50 ([4]; with 200 µM IPP, read-out: IC50 in the presence of IPP): > 20 µM; IC50 ([4]; without IPP, read-out: IC50 in the absence of IPP): 1.2 ± 0.2 µM"
cyclopiazonic acid [reference compound],,"[Ca^2+]cyt rise in brussonol-pretreated parasites ([5]; 10 µM CPA added after 10 µM brussonol): 30 ± 5 nM; [Ca^2+]cyt rise ([5]; 10 µM compound alone, MOPS Ca^2+ buffer, relative to basal level): 23 ± 2 nM"
